# What was measured:
# [1] = In vitro chemical stability in saline, PBS and n-octanol; type: physicochemical; details: 37 °C up to 60 min
# Experimental: (§1) The chemical stability of [^18F]PPY1 and [^18F]PPY2 was investigated in isotonic saline, phosphate-buffered saline (PBS, pH 7.4) and n-octanol by incubation at 37 °C. Samples were taken at 15, 30 and 60 min of incubation time and analyzed by radio-TLC and radio-HPLC. LogD7.4 values of [^18F]PPY1 and of [^18F]PPY2 were experimentally determined in n-octanol/PBS at RT by the shake-flask method. The measurements were performed in triplicate.
# [2] = target: T1, A2AR (Mus musculus, UniProt Q60613); experiment: In vitro autoradiography on mouse brain slices; type: binding, CD-1 mice; details: for fraction of total binding displaced by ZM241385 in striatum (specific binding): 10 µM ZM241385
# T1 construct: Brains of CD-1 mice frozen in isopentane were cut using a cryostat; from tissue; host or cells: CD-1 mouse brain sections
# Experimental: Brains of CD-1 mice frozen in isopentane were cut using a cryostat, thaw-mounted onto microscope slides, and after air-drying stored at −80 °C until use. Briefly, the brain sections were dried in a stream of cold air, and pre-incubated in 50 mM TRIS-HCl buffer (pH 7.4, 100 mM NaCl, 5 mM MgCl2, 1 mM EDTA) containing 1 µU/mL adenosine deaminase (ADA) for 15 min at RT. Afterwards, brain sections were incubated with 0.24 MBq/mL of [^18F]PPY1 (0.2 nM) or 0.26 MBq/mL of [^18F]PPY2 (5.1 nM) in buffer for 90 min at RT. Non-specific binding was determined in the presence of 10 µM ZM241385. Displacement of both radiotracers was evaluated with 10 µM PPY1 and PPY2, respectively. Subsequently, the sections were washed twice for 5 min in ice-cold TRIS-HCl buffer, and dipped for 5 s in ice-cold deionized water. The sections were rapidly dried in a stream of cold air before being exposed overnight on an imaging plate. Developed autoradiographs were analyzed in a phosphor imager (HD-CR 35, Duerr NDT GmbH, Bietigheim-Bissingen, Germany). Quantification was performed by using 2D-densitometric analysis (AIDA 2.31 software, raytest Isotopenmessgeräte GmbH, Straubenhardt, Germany).
# [3] = In vivo metabolism (radiometabolite analysis of plasma and brain by radio-HPLC); details: CD-1 mice, i.v., 30 min p.i., n = 2
# Experimental: The radiotracer was administered i.v. as bolus in awake CD-1 mice (40 MBq [^18F]PPY1; 30 MBq [^18F]PPY2; n = 2, respectively). At 30 min post injection (p.i.), blood samples were taken retroorbitally from the anesthetized animals. Plasma was separated by centrifugation at 8000 rpm at RT for 1 min (Centrifuge 5418, Eppendorf Vertrieb Deutschland GmbH, Wesseling-Berzdorf, Germany), and brain homogenized in 1 mL water on ice (10 strokes of a PTFE plunge at 1000 rpm in a borosilicate glass cylinder; Potter S Homogenizer; B. Braun Melsungen AG, Melsungen, Germany). For protein precipitation and extraction an ice-cold mixture of acetone/water (4/1; v/v) was used in a ratio of 4:1 (v/v) of solvent to plasma or brain homogenate, respectively. The samples were vortexed for 3 min, equilibrated on ice for 5 min, and centrifuged for 5 min at 10,000 rpm. After separating the supernatant, the precipitates were washed with 100 µL of the solvent mixture and subjected to the same procedure. The combined supernatants were concentrated at 75 °C under nitrogen flow to a final volume of approx. 100 µL and analyzed by analytical radio-HPLC (see section quality control). To determine the percentage of activity in the supernatants compared to total activity, aliquots of each step as well as the precipitates were quantified by a gamma counter (Wallac Wizard 1480; PerkinElmer, Turku, Finland).
# [4] = PET/MR imaging (brain uptake and organ distribution); type: in vivo; details: CD-1 mice; for SUV60 min bladder / SUV60 min small intestine: 60 min; for maximum SUV ratio of striatum-to-cerebellum: after 4 min; for initial brain uptake, standardized uptake value (SUV): between 2 and 3 min; for initial uptake in striatum and cerebellum: followed by a fast washout
# Experimental: For the time of the experiments, CD-1 mice were kept in a dedicated climatic chamber with free access to water and food under a 12:12 h dark:light cycle at a constant temperature (24 °C). The animals were anaesthetized (anesthesia unit U-410; agntho’s; Lidingö; Sweden) with isoflurane (1.8%, 0.35 L/min) delivered in a 60% oxygen/40% air mixture (Gas Blender 100 Series, MCQ instruments, Rome, Italy) and maintained at 37 °C with a thermal bed system. The formulated radiotracer was injected into the tail vein ([^18F]PPY1: 3.2–4.3 MBq in 150 µL isotonic saline and <1% EtOH/DMSO; Am: 150 GBq/µmol; […]; Am: 80 GBq/µmol) followed by a 60 min PET/MR scan (PET/MR 1Tesla; nanoScan®, MEDISO Medical Imaging Systems, Budapest, Hungary). Each PET image was corrected for random coincidences, dead time, scatter and attenuation (AC), based on a whole body (WB) MR scan. The list mode data was sorted into sinograms using a framing scheme of 12 × 10 s, 6 × 30 s, 5 × 300 s, […]. The reconstruction parameters for the list mode data were 3D-ordered subset expectation maximization (OSEM), 4 iterations, 6 subsets, energy window: 400–600 keV, coincidence mode: 1–5, ring difference: 81. The mice were positioned prone in a special mouse bed (heated up to 37 °C), with the head fixed to a mouth piece for the anesthetic gas supply with isoflurane in 40% air and 60% oxygen (anesthesia unit: U-410, agnthos, Lidingö, Sweden; Gas blender: MCQ, Rome, Italy). The PET data were collected by a continuous WB scan during the entire investigation. Following the 60 min PET scan a T1 weighted WB gradient echo sequence (TR/TE: 20/6.4 ms, NEX: 1, FA: 25, FOV: 64 × 64 mm, matrix: 128 × 128, slice thickness: 0.5 mm) was performed for AC and anatomical orientation. Image registration and evaluation of the volume of interest (VOI) was done with PMOD 3.9 (PMOD technologies LLC, Zurich, Switzerland). The respective brain regions were identified using the mouse brain atlas template Ma-Benveniste-Mirrione-FDG. Spherical VOI with diameters of 1 to 2 mm were placed at the center of the liver, stomach, and spleen. Small intestine, kidney, and bladder VOI were delineated from the PET signal. Heart wall and blood were delineated from the T1 weighted image avoiding spill over from neighboring organs. The activity data is expressed as mean SUV of the overall VOI.
# [5] = Lipophilicity (LogD7.4), shake-flask method in n-octanol/PBS; type: physicochemical; details: pH 7.4, n-octanol-PBS, RT, n = 3
# Experimental: as §1
# T1 sequence (Q60613 whole entry): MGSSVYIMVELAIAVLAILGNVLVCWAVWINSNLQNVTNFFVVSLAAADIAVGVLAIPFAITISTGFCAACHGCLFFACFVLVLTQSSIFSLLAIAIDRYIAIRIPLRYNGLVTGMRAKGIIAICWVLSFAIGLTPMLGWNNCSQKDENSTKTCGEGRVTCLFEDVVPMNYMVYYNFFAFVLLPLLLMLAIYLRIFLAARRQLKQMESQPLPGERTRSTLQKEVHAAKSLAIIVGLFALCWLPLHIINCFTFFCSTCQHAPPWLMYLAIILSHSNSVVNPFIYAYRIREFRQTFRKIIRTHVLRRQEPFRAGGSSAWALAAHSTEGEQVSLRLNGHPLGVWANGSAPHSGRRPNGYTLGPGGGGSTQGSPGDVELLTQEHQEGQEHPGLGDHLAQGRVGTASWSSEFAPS
Compound,"Stability in saline, PBS and n-octanol [1]",distribution of radiotracer binding in mouse brain [2],fraction of total binding displaced by ZM241385 in striatum (specific binding) [2],"intact radiotracer in plasma, of total activity [3]","initial SUV in heart, spleen, stomach and liver [4]",specific binding in striatum in vivo (PET) [4],SUV60 min bladder [4],SUV60 min small intestine [4],maximum SUV ratio of striatum-to-cerebellum [4],"initial brain uptake, standardized uptake value (SUV) [4]",initial uptake in striatum and cerebellum [4],logD [5],"intact radiotracer in brain, of total activity [3]","intact radiotracer in brain, of total activity ([3]; listed as [18F]PPY2)"
Nc1nc(-c2ccco2)c2cnn(Cc3ccc([18F])cc3)c2n1 [[^18F]PPY1],proven,displaceable binding was detected in various brain regions,42%,13%,< 3 SUV,lack of specific binding,8.2 SUV,21.9 SUV,1.5,1.2–1.4 SUV,~ 1.3 SUV,1.59 ± 0.15,–,–
Nc1nc(-c2ccco2)c2cnn(Cc3ccccc3[18F])c2n1 [[^18F]PPY2],proven,observed in the striatum,62%,21%,< 3 SUV,lack of specific binding,18.5 SUV,6.7 SUV,1.3,1.2–1.4 SUV,~ 1.3 SUV,2.01 ± 0.16,83%,more than 76%
